{
  "source": "patent US5739111A",
  "about": "“Modulating body/cranial hair growth with derivatives of the α-type melanocyte-stimulating hormone” (Societe L'Oreal S.A., priority 1995, dated 1998)",
  "test_system": "hair follicles",
  "assay": "lengthening and survival of hair follicles maintained in vitro",
  "format": "cell-based",
  "parameters": "Mean lengthening: unit not given here",
  "method": "Viable in vitro hair follicles were prepared according to the technique described in French Patent Application No. 95-08465, filed July 12, 1995 and assigned to the assignee hereof.\nFrom a scalp biopsy, a rather fine strip of scalp was isolated using a scalpel. The adipose tissue surrounding the follicles was removed with microforceps while avoiding damage to the hair bulb. The follicles were cut out with a scalpel under a microscope in order to separate them from their epidermal and dermal surroundings.\nThe follicles were then cultured in the wells of Costar-type 24-well plates, at the rate of one follicle per well. Each well contained 0.5 ml of Williams' medium E, to which had been added penicillin and Streptomycin to a final concentration of 50 IU/ml, glutamine to 2 mM, bovine insulin to 0.01 mg/ml and hydrocortisone to 0.04 mg/ml.\nThe follicles were then measured using a microscope equipped with a micrometric eyepiece.\nAfter 24 hours, the follicles were again measured and those which had lengthened by less than 0.3 divisions of the micrometer, corresponding to 0.16 mm, were discarded.\nThe five (5) following culturing conditions were tested:\nCondition A: Complete Williams' medium E, without peptide.\nCondition B: Complete Williams' medium E+10 mM Ac-LPV-NH2.\nCondition C: Complete Williams' medium E+1 mM Ac-LPV-N2.\nCondition D: Complete Williams' medium E+0.1 mM Ac-LPV-NH2.",
  "key": {"[1]": {"conditions": "summary in words, versus medium without peptide"}},
  "note": "Where a SMILES comes first, the peptide text is derived from it.",
  "data": [
    {"smiles": "CC(=O)N[C@@H](CCCCN)C(=O)N1CCC[C@H]1C(=O)N[C@H](C(N)=O)C(C)C", "note": "[Acetyl-Lys-Pro-Val-NH2] (Ac-Lys-Pro-Val-NH2)", "values": [
      {"measurement": "Mean lengthening", "setting": "1 mM (Conditions C, E) in complete Williams' medium E, day 0", "value": 0.00},
      {"measurement": "% Survival", "setting": "1 mM (Conditions C, E), day 0", "value": 100, "unit": "%"},
      {"measurement": "% Survival", "setting": "1 mM (Conditions C, E), day 1", "value": 100, "unit": "%"},
      {"measurement": "Mean lengthening", "setting": "1 mM (Conditions C, E), day 1", "value": 0.38},
      {"measurement": "% Survival", "setting": "1 mM (Conditions C, E), day 4", "value": 100, "unit": "%"},
      {"measurement": "Mean lengthening", "setting": "1 mM (Conditions C, E), day 4", "value": 1.05},
      {"measurement": "% Survival", "setting": "1 mM (Conditions C, E), day 5", "value": 100, "unit": "%"},
      {"measurement": "Mean lengthening", "setting": "1 mM (Conditions C, E), day 5", "value": 1.21},
      {"measurement": "% Survival", "setting": "1 mM (Conditions C, E), day 6", "value": 100, "unit": "%"},
      {"measurement": "Mean lengthening", "setting": "1 mM (Conditions C, E), day 6", "value": 1.28},
      {"measurement": "% Survival", "setting": "1 mM (Conditions C, E), day 7", "value": 91, "unit": "%"},
      {"measurement": "Mean lengthening", "setting": "1 mM (Conditions C, E), day 7", "value": 1.42},
      {"measurement": "% Survival", "setting": "1 mM (Conditions C, E), day 8", "value": 55, "unit": "%"},
      {"measurement": "Mean lengthening", "setting": "1 mM (Conditions C, E), day 8", "value": 1.39},
      {"measurement": "% Survival", "setting": "1 mM (Conditions C, E), day 11", "value": 36, "unit": "%"},
      {"measurement": "Mean lengthening", "setting": "1 mM (Conditions C, E), day 11", "value": 1.70},
      {"measurement": "Mean lengthening", "setting": "Condition B, 10 mM in complete Williams' medium E, day 0", "value": 0.00},
      {"measurement": "% Survival", "setting": "Condition B, 10 mM, day 0", "value": 100, "unit": "%"},
      {"measurement": "% Survival", "setting": "Condition B, 10 mM, day 1", "value": 100, "unit": "%"},
      {"measurement": "Mean lengthening", "setting": "Condition B, 10 mM, day 1", "value": 0.38},
      {"measurement": "% Survival", "setting": "Condition B, 10 mM, day 4", "value": 100, "unit": "%"},
      {"measurement": "Mean lengthening", "setting": "Condition B, 10 mM, day 4", "value": 1.11},
      {"measurement": "% Survival", "setting": "Condition B, 10 mM, day 5", "value": 100, "unit": "%"},
      {"measurement": "Mean lengthening", "setting": "Condition B, 10 mM, day 5", "value": 1.33},
      {"measurement": "% Survival", "setting": "Condition B, 10 mM, day 6", "value": 100, "unit": "%"},
      {"measurement": "Mean lengthening", "setting": "Condition B, 10 mM, day 6", "value": 1.43},
      {"measurement": "% Survival", "setting": "Condition B, 10 mM, day 7", "value": 100, "unit": "%"},
      {"measurement": "Mean lengthening", "setting": "Condition B, 10 mM, day 7", "value": 1.54},
      {"measurement": "% Survival", "setting": "Condition B, 10 mM, day 8", "value": 92, "unit": "%"},
      {"measurement": "Mean lengthening", "setting": "Condition B, 10 mM, day 8", "value": 1.74},
      {"measurement": "% Survival", "setting": "Condition B, 10 mM, day 11", "value": 83, "unit": "%"},
      {"measurement": "Mean lengthening", "setting": "Condition B, 10 mM, day 11", "value": 1.96},
      {"measurement": "% Survival", "setting": "Condition B, 10 mM, day 12", "value": 42, "unit": "%"},
      {"measurement": "Mean lengthening", "setting": "Condition B, 10 mM, day 12", "value": 2.40},
      {"measurement": "Mean lengthening", "setting": "Condition D, 0.1 mM in complete Williams' medium E, day 0", "value": 0.00},
      {"measurement": "% Survival", "setting": "Condition D, 0.1 mM, day 0", "value": 100, "unit": "%"},
      {"measurement": "% Survival", "setting": "Condition D, 0.1 mM, day 1", "value": 100, "unit": "%"},
      {"measurement": "Mean lengthening", "setting": "Condition D, 0.1 mM, day 1", "value": 0.37},
      {"measurement": "% Survival", "setting": "Condition D, 0.1 mM, day 4", "value": 100, "unit": "%"},
      {"measurement": "Mean lengthening", "setting": "Condition D, 0.1 mM, day 4", "value": 1.10},
      {"measurement": "% Survival", "setting": "Condition D, 0.1 mM, day 5", "value": 100, "unit": "%"},
      {"measurement": "Mean lengthening", "setting": "Condition D, 0.1 mM, day 5", "value": 1.22},
      {"measurement": "% Survival", "setting": "Condition D, 0.1 mM, day 6", "value": 100, "unit": "%"},
      {"measurement": "Mean lengthening", "setting": "Condition D, 0.1 mM, day 6", "value": 1.28},
      {"measurement": "% Survival", "setting": "Condition D, 0.1 mM, day 7", "value": 83, "unit": "%"},
      {"measurement": "Mean lengthening", "setting": "Condition D, 0.1 mM, day 7", "value": 1.42},
      {"measurement": "% Survival", "setting": "Condition D, 0.1 mM, day 8", "value": 50, "unit": "%"},
      {"measurement": "Mean lengthening", "setting": "Condition D, 0.1 mM, day 8", "value": 1.58},
      {"measurement": "% Survival", "setting": "Condition D, 0.1 mM, day 11", "value": 42, "unit": "%"},
      {"measurement": "Mean lengthening", "setting": "Condition D, 0.1 mM, day 11", "value": 2.08},
      {"measurement": "% Survival", "setting": "Condition D, 0.1 mM, day 12", "value": 17, "unit": "%"},
      {"measurement": "Mean lengthening", "setting": "Condition D, 0.1 mM, day 12", "value": 2.11},
      {"measurement": "effect on lengthening of the cultured hair follicles", "setting": "[1]", "value": "promoted the lengthening"},
      {"measurement": "effect on survival time of the cultured hair follicles", "setting": "[1]", "value": "increased their survival time"}
    ]}
  ]
}
